Measurements as given in patent publication US11780830B2, “Triazolone derivatives or salts thereof and pharmaceutical compositions comprising the same” (YUHAN CORPORATION, priority 2018, dated 2023).
Where a name gives a salt, the structure may show the parent alone.

How the values were obtained:
Type in all cases: biochemical
[1] = molecular target: T1, recombinant human VAP-1 (Homo sapiens, UniProt Q16853); assay: Activity on recombinant human VAP-1, HRP-coupled Amplex Red hydrogen peroxide assay; settings: substrate 1 mM benzylamine; compound incubated with enzyme at 37° C. for 30 minutes; pH 7.4; read-out: Inhibitory Activity (IC50, nM) human VAP-1
T1 construct: purchased R&D systems
T1 sequence (Q16853 1-763): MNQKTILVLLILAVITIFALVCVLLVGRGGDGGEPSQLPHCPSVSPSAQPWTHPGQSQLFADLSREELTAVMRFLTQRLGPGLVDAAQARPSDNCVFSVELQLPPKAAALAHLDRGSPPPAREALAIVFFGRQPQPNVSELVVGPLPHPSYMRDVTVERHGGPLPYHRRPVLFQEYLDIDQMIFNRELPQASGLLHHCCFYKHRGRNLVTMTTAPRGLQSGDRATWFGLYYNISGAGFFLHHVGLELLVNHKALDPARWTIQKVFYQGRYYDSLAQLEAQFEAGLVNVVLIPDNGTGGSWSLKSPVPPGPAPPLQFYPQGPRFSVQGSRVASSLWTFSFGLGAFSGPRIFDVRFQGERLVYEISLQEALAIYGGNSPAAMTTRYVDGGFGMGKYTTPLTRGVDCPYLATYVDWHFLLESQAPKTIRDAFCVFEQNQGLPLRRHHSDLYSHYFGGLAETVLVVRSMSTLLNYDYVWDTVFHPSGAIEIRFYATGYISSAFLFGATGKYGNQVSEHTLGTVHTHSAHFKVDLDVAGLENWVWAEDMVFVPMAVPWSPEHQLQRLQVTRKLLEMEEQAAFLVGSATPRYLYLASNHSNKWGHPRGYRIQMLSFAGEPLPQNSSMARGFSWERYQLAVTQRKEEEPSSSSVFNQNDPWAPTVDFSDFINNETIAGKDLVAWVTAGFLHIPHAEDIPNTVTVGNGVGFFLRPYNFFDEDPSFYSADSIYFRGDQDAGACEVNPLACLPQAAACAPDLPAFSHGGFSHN
Outline: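 Enzyme in 50 mM sodium phosphate (pH 7.4) is exposed to test compound for 30 min at 37 °C. Benzylamine (1 mM) with HRP and Amplex Red then starts the reaction, and the fluorescence rate, relative to a DMSO-only control, gives IC50.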

[2] = molecular target: T2, recombinant human MAO-A (monoamine oxidase-A) (Homo sapiens, UniProt P21397); assay: Activity on recombinant human MAO-A, method similar to the VAP-1 assay; settings: substrate 0.5 mM tyramine; read-out: Inhibitory Activity (IC50, nM) MAO-A
T2 construct: purchased Sigma-Aldrich
T2 sequence (P21397 1-527): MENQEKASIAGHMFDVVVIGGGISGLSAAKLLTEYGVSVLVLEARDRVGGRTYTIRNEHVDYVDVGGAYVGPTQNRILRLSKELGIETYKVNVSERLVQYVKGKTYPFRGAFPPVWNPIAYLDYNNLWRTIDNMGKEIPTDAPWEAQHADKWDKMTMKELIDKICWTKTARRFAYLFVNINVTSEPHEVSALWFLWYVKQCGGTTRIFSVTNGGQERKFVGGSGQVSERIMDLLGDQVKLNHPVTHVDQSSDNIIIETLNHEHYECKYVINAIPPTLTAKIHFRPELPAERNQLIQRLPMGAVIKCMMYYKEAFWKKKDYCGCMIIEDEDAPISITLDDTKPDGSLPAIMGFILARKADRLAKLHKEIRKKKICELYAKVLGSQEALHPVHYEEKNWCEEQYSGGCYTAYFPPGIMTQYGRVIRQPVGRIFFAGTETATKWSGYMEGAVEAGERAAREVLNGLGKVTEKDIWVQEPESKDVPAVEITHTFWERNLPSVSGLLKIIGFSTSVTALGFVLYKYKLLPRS
Outline: (§1)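 Enzyme in pH 7.4 phosphate buffer; 30 min, 37° C with compound (DMSO <1%); start with 200 uM Amplex Red + 1 U/mL HRP + tyramine 0.5 mM (MAO-A) or benzylamine 1 mM (MAO-B); kinetic read ex 544/em 590, 1-2 h; % rate decrease vs DMSO control → IC50, 4-parameter fit.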

[3] = molecular target: T3, recombinant human MAO-B (monoamine oxidase-B) (Homo sapiens, UniProt P27338); assay: Activity on recombinant human MAO-B, method similar to the VAP-1 assay; settings: substrate 1 mM benzylamine; read-out: Inhibitory Activity (IC50, nM) MAO-B
T3 construct: purchased Sigma-Aldrich
T3 sequence (P27338 1-520): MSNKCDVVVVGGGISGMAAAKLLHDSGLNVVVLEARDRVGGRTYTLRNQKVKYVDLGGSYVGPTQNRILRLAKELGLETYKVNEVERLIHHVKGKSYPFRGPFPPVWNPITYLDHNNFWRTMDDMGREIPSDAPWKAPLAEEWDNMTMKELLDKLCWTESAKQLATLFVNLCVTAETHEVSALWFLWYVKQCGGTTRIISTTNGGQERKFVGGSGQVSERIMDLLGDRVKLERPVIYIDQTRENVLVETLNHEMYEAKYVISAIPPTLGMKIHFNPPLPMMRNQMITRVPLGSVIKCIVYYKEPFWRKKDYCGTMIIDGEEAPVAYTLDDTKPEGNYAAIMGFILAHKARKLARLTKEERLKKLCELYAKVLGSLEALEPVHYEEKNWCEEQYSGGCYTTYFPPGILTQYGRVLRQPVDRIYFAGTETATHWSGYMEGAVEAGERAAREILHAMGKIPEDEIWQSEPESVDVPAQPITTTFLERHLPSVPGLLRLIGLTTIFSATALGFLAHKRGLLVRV
Outline: as §1

[4] = molecular target: T4, recombinant human DAO (diamine oxidase) (Homo sapiens, UniProt P19801); assay: Activity on recombinant human DAO, method similar to the VAP-1 assay; settings: substrate 1 mM putrescine; read-out: Inhibitory Activity (IC50, nM) DAO
T4 construct: purchased R&D systems
T4 sequence (P19801 20-751): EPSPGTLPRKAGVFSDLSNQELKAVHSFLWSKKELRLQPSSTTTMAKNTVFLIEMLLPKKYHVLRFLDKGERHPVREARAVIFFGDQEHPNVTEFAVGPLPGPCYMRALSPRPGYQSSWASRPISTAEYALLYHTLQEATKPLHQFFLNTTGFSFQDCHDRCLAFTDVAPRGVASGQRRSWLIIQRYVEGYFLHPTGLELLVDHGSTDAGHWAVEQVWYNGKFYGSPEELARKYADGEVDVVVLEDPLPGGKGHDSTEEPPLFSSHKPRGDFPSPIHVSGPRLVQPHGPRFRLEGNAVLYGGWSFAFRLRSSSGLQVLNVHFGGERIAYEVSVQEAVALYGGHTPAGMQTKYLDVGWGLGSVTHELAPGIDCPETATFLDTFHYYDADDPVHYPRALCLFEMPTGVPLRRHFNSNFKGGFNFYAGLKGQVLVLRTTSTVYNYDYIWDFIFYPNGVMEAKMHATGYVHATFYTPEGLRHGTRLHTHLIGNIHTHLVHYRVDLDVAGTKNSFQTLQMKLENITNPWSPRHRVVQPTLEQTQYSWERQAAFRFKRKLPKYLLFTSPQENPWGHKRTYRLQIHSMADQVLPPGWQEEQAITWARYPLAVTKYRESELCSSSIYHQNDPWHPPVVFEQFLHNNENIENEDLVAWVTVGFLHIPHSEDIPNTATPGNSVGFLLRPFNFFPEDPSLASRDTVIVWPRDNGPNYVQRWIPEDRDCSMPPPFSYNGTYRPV
Outline: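 Inhibition of recombinant human diamine oxidase (DAO, R&D systems) was assessed by the same approach as the VAP-1 assay, using 1 mM putrescine as substrate. Hydrogen peroxide formed was detected through an HRP-coupled Amplex Red reaction yielding fluorescent resorufin, read at 544 nm excitation and 590 nm emission. IC50 values came from four-parameter logistic fitting in GraphPad Prism.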

Structure (SMILES)	IC50 [1]	IC50 [2]	IC50 [3]	IC50 [4]
NC/C(=C\F)Cn1ncn(Cc2ccc(-c3ccc4c(c3)NCCO4)s2)c1=O [Example 105, 2-[(E)-2-(aminomethyl)-3-fluoro-allyl]-4-[[5-(3,4-dihydro-2H-1,4-benzoxazin-6-yl)-2-thienyl]methyl]-1,2,4-triazol-3-one]	1.8 nM	38400 nM	420 nM	8500 nM
NC/C(=C\F)Cn1ncn(Cc2ccc(-c3ccc4c(c3F)NCCO4)s2)c1=O [Example 106, 2-[(E)-2-(aminomethyl)-3-fluoro-allyl]-4-[[5-(5-fluoro-3,4-dihydro-2H-1,4-benzoxazin-6-yl)-2-thienyl]methyl]-1,2,4-triazol-3-one]	0.8 nM	11000 nM	250 nM	2500 nM
NC/C(=C\F)Cn1ncn(Cc2ccc(-c3cc4c(cc3F)OCCN4)s2)c1=O [Example 107, 2-[(E)-2-(aminomethyl)-3-fluoro-allyl]-4-[[5-(7-fluoro-3,4-dihydro-2H-1,4-benzoxazin-6-yl)-2-thienyl]methyl]-1,2,4-triazol-3-one]	1.5 nM	18000 nM	320 nM	960 nM
Cc1c(-c2ccc(Cn3cnn(C/C(=C/F)CN)c3=O)s2)ccc2c1NCCO2 [Example 108, 2-[(E)-2-(aminomethyl)-3-fluoro-allyl]-4-[[5-(5-methyl-3,4-dihydro-2H-1,4-benzoxazin-6-yl)-2-thienyl]methyl]-1,2,4-triazol-3-one]	0.8 nM	21000 nM	3200 nM	250 nM
NC/C(=C\F)Cn1ncn(Cc2ccc(-c3ccc4c(c3)CCCO4)s2)c1=O [Example 109, 2-[(2E)-2-(aminomethyl)-3-fluoroprop-2-en-1-yl]-4-[5-(3,4-dihydro-2H-chromen-6-yl)thiophen-2-yl]methyl-2,4-dihydro-3H-1,2,4-triazol-3-one hydrochloride]	2.7 nM	25300 nM	104 nM	2540 nM
NC/C(=C\F)Cn1ncn(Cc2ccc(-c3ccc4c(c3)CCCN4)s2)c1=O [Example 110, 2-[(2E)-2-(aminomethyl)-3-fluoroprop-2-en-1-yl]-4-[5-(1,2,3,4-tetrahydroquinolin-6-yl)thiophen-2-yl]methyl-2,4-dihydro-3H-1,2,4-triazol-3-one hydrochloride]	0.9 nM	32000 nM	370 nM	220 nM
NC/C(=C\F)Cn1ncn(Cc2ccc(-c3cnc4c(c3)CCCN4)s2)c1=O [Example 111, 2-[(E)-2-(aminomethyl)-3-fluoro-allyl]-4-[[5-(5,6,7,8-tetrahydro-1,8-naphthyridin-3-yl)-2-thienyl]methyl]-1,2,4-triazol-3-one]	0.6 nM	> 100000 nM	5900 nM	530 nM
CNc1ncc2cc(-c3ccc(Cn4cnn(C/C(=C/F)CN)c4=O)s3)ccc2n1 [Example 112, 2-[(2E)-2-(aminomethyl)-3-fluoroprop-2-en-1-yl]-4-(5-[2-(methylamino)quinazolin-6-yl]thiophen-2-ylmethyl)-2,4-dihydro-3H-1,2,4-triazol-3-one hydrochloride]	0.9 nM	> 100000 nM	950 nM	310 nM
NC/C(=C\F)Cn1ncn(Cc2ccc(-c3cccc4ncccc34)s2)c1=O [Example 113, 2-[(2E)-2-(aminomethyl)-3-fluoroprop-2-en-1-yl]-4-[5-(quinolin-5-yl)thiophen-2-yl]methyl-2,4-dihydro-3H-1,2,4-triazol-3-one hydrochloride]	0.8 nM	> 100000 nM	160 nM	340 nM
NC/C(=C\F)Cn1ncn(Cc2ccc(-c3cccc4cnccc34)s2)c1=O [Example 114, 2-[(2E)-2-(aminomethyl)-3-fluoroprop-2-en-1-yl]-4-[5-(isoquinolin-5-yl)thiophen-2-yl]methyl-2,4-dihydro-3H-1,2,4-triazol-3-one hydrochloride]	0.3 nM	143000 nM	23 nM	110 nM
NC/C(=C\F)Cn1ncn(Cc2ccc(-c3c[nH]c4ncccc34)s2)c1=O [Example 115, 2-[(2E)-2-(aminomethyl)-3-fluoroprop-2-en-1-yl]-4-[5-(1H-pyrrolo[2,3-b]pyridin-3-yl)thiophen-2-yl]methyl-2,4-dihydro-3H-1,2,4-triazol-3-one hydrochloride]	0.7 nM	> 100000 nM	120 nM	860 nM
NC/C(=C\F)Cn1ncn(Cc2ccc(/C=C/c3ccc(O)cc3)s2)c1=O [Example 116, 2-[(2E)-2-(aminomethyl)-3-fluoroprop-2-en-1-yl]-4-(5-[(E)-2-(4-hydroxyphenyl)ethenyl]thiophen-2-ylmethyl)-2,4-dihydro-3H-1,2,4-triazol-3-one hydrochloride]	0.6 nM	4400 nM	180 nM	1700 nM
